Measurements: PMC5218480 (PLoS ONE, 2017)

Test system: MV-4-11 cells
Test: Gene expression microarray analysis (Affymetrix PrimeView) and GSEA
Assay type: cell-based, human
Design: RFU PODN (11730768_x_at) / Fold change /veh PODN (11730768_x_at) / RFU LINC00158 (11744669_a_at) / Fold change /veh LINC00158 (11744669_a_at) / RFU DUSP10 (11751237_a_at) / Fold change /veh DUSP10 (11751237_a_at) / RFU ID3 (11757404_x_at) / Fold change /veh ID3 (11757404_x_at) / RFU PLEKHG5 (11737974_s_at) / Fold change /veh PLEKHG5 (11737974_s_at) / RFU LRRC4B (11730491_at) / Fold change /veh LRRC4B (11730491_at) / RFU GIMAP4 (11747438_a_at) / Fold change /veh GIMAP4 (11747438_a_at) / RFU KRT8 (11758183_x_at) / Fold change /veh KRT8 (11758183_x_at) / RFU CNN1 (11734310_a_at) / Fold change /veh CNN1 (11734310_a_at) / RFU VPS37D (11726825_at) / Fold change /veh VPS37D (11726825_at) / RFU C10orf10 (11716522_x_at) / Fold change /veh C10orf10 (11716522_x_at) / RFU KIR2DL2 /// KIR2DL4 /// KIR2DL5A /// KIR2DL5B /// KIR2DS1 /// KIR2DS2 /// KIR2DS3 /// KIR2DS4 /// KIR3DL3 /// KIR3DL3 /// KIR3DS1 (11738374_at) / Fold change /veh KIR2DL2 /// KIR2DL4 /// KIR2DL5A /// KIR2DL5B /// KIR2DS1 /// KIR2DS2 /// KIR2DS3 /// KIR2DS4 /// KIR3DL3 /// KIR3DL3 /// KIR3DS1 (11738374_at) / RFU C1QL1 (11718748_at) / Fold change /veh C1QL1 (11718748_at) / RFU TMPRSS4 (11747572_a_at) / Fold change /veh TMPRSS4 (11747572_a_at) / RFU HAMP (11756126_x_at) / Fold change /veh HAMP (11756126_x_at) / RFU RNFT2 (11725882_a_at) / Fold change /veh RNFT2 (11725882_a_at) / RFU NR4A2 (11747474_a_at) / Fold change /veh NR4A2 (11747474_a_at) / RFU ABCC12 (11746883_a_at) / Fold change /veh ABCC12 (11746883_a_at) / RFU TMEM136 (11760407_x_at) / Fold change /veh TMEM136 (11760407_x_at) / RFU CLDN22 /// WWC2 (11732394_at) / Fold change /veh CLDN22 /// WWC2 (11732394_at) / RFU HLA-DPB1 (11760878_x_at) / Fold change /veh HLA-DPB1 (11760878_x_at) / RFU SPINT1 (11716480_a_at) / Fold change /veh SPINT1 (11716480_a_at) / RFU GAP43 (11754022_s_at) / Fold change /veh GAP43 (11754022_s_at) / RFU A4GNT (11735810_at) / Fold change /veh A4GNT (11735810_at) / RFU PRB3 (11715151_x_at) / Fold change /veh PRB3 (11715151_x_at) / RFU TUBB4B (11761932_at) / Fold change /veh TUBB4B (11761932_at) / RFU CAPN14 (11732068_a_at) / Fold change /veh CAPN14 (11732068_a_at) / RFU TMCC2 (11721928_a_at) / Fold change /veh TMCC2 (11721928_a_at) / RFU IRGQ (11745062_a_at) / Fold change /veh IRGQ (11745062_a_at) / RFU FAM174B (11720279_a_at) / Fold change /veh FAM174B (11720279_a_at) / RFU TMPRSS4 (11748680_a_at) / Fold change /veh TMPRSS4 (11748680_a_at) / RFU FAM212B (11763350_a_at) / Fold change /veh FAM212B (11763350_a_at) / RFU PLEKHG5 (11743358_a_at) / Fold change /veh PLEKHG5 (11743358_a_at) / RFU ZSCAN30 (11745921_a_at) / Fold change /veh ZSCAN30 (11745921_a_at) / RFU CMKLR1 (11741424_a_at) / Fold change /veh CMKLR1 (11741424_a_at) / RFU LOC101060620 /// MAPK8IP1 (11723275_at) / Fold change /veh LOC101060620 /// MAPK8IP1 (11723275_at) / RFU SPTSSB (11747773_x_at) / Fold change /veh SPTSSB (11747773_x_at) / RFU PRSS12 (11739890_at) / Fold change /veh PRSS12 (11739890_at) / RFU BIN1 (11741810_x_at) / Fold change /veh BIN1 (11741810_x_at) / RFU WNT11 (11732464_a_at) / Fold change /veh WNT11 (11732464_a_at) / RFU C10orf10 (11716521_a_at) / Fold change /veh C10orf10 (11716521_a_at) / RFU C5orf56 (11738089_at) / Fold change /veh C5orf56 (11738089_at) / RFU CYB561 (11721691_x_at) / Fold change /veh CYB561 (11721691_x_at) / RFU ANKRD19P (11752326_a_at) / Fold change /veh ANKRD19P (11752326_a_at) / RFU OR2T12 /// OR2T33 /// OR2T8 (11738714_s_at) / Fold change /veh OR2T12 /// OR2T33 /// OR2T8 (11738714_s_at) / RFU VCAN (11748164_a_at) / Fold change /veh VCAN (11748164_a_at) / RFU JSRP1 (11732532_at) / Fold change /veh JSRP1 (11732532_at) / RFU KRTAP10-11 (11738290_x_at) / Fold change /veh KRTAP10-11 (11738290_x_at) / RFU MYO3A (11730013_a_at) / Fold change /veh MYO3A (11730013_a_at) / RFU EBF3 (11725865_a_at) / Fold change /veh EBF3 (11725865_a_at) / RFU CAMK2N1 (11719241_x_at) / Fold change /veh CAMK2N1 (11719241_x_at) / RFU C5orf56 (11738088_a_at) / Fold change /veh C5orf56 (11738088_a_at) / RFU OLFML3 (11715873_a_at) / Fold change /veh OLFML3 (11715873_a_at) / RFU LOC100653217 /// NTM (11731650_a_at) / Fold change /veh LOC100653217 /// NTM (11731650_a_at) / RFU MAPK11 (11762145_a_at) / Fold change /veh MAPK11 (11762145_a_at) / RFU FIZ1 (11724087_x_at) / Fold change /veh FIZ1 (11724087_x_at) / RFU OASL (11726364_x_at) / Fold change /veh OASL (11726364_x_at) / RFU SOX15 (11748057_x_at) / Fold change /veh SOX15 (11748057_x_at) / RFU CD79A (11719716_a_at) / Fold change /veh CD79A (11719716_a_at) / RFU HIST1H1D (11736915_at) / Fold change /veh HIST1H1D (11736915_at) / RFU CASKIN2 (11723855_a_at) / Fold change /veh CASKIN2 (11723855_a_at) / RFU LOC730098 (11760151_x_at) / Fold change /veh LOC730098 (11760151_x_at) / RFU OR4N2 (11742367_at) / Fold change /veh OR4N2 (11742367_at) / RFU PRRT2 (11749266_a_at) / Fold change /veh PRRT2 (11749266_a_at) / RFU SNX32 (11753110_a_at) / Fold change /veh SNX32 (11753110_a_at) / RFU CDHR5 (11726645_a_at) / Fold change /veh CDHR5 (11726645_a_at) / RFU RCAN1 (11760418_a_at) / Fold change /veh RCAN1 (11760418_a_at) / RFU FAM167A (11723789_a_at) / Fold change /veh FAM167A (11723789_a_at) / RFU FAM26E (11764081_at) / Fold change /veh FAM26E (11764081_at) / RFU ISYNA1 (11749810_s_at) / Fold change /veh ISYNA1 (11749810_s_at) / RFU ACY1 (11761880_at) / Fold change /veh ACY1 (11761880_at) / RFU 11764098_at / Fold change /veh 11764098_at / RFU SAMD14 (11745864_x_at) / Fold change /veh SAMD14 (11745864_x_at) / RFU NPB (11741838_a_at) / Fold change /veh NPB (11741838_a_at) / RFU TMPRSS6 (11731388_a_at) / Fold change /veh TMPRSS6 (11731388_a_at) / RFU KRTAP10-2 (11738614_at) / Fold change /veh KRTAP10-2 (11738614_at) / RFU ARHGAP8 /// PRR5-ARHGAP8 (11727945_x_at) / Fold change /veh ARHGAP8 /// PRR5-ARHGAP8 (11727945_x_at) / RFU KRTAP5-7 /// NADSYN1 (11734609_at) / Fold change /veh KRTAP5-7 /// NADSYN1 (11734609_at) / RFU RASL12 (11751679_a_at) / Fold change /veh RASL12 (11751679_a_at) / RFU CDKN2B (11736163_a_at) / Fold change /veh CDKN2B (11736163_a_at) / RFU PRF1 (11729649_at) / Fold change /veh PRF1 (11729649_at) / RFU, ZNF638 /// ZNF638-IT1 / Fold change vs veh, ZNF638 /// ZNF638-IT1 / RFU, PANK3 / Fold change vs veh, PANK3 / RFU, SH3YL1 / Fold change vs veh, SH3YL1 / RFU, ZEB2 / Fold change vs veh, ZEB2 / RFU, NRIP1 / Fold change vs veh, NRIP1 / RFU, PTTG1IP / Fold change vs veh, PTTG1IP / RFU, CAPN2 / Fold change vs veh, CAPN2 / RFU, MED14 / Fold change vs veh, MED14 / RFU, SNORA58 / Fold change vs veh, SNORA58 / RFU, C1orf63 / Fold change vs veh, C1orf63 / RFU, LRRFIP1 / Fold change vs veh, LRRFIP1 / RFU, NDUFAF7 / Fold change vs veh, NDUFAF7 / RFU, SLC12A2 / Fold change vs veh, SLC12A2 / RFU, IBTK / Fold change vs veh, IBTK / RFU, ESF1 / Fold change vs veh, ESF1 / Fold change vs veh, TMEM50B / RFU, TAOK1 / Fold change vs veh, TAOK1 / RFU, ACBD3 / Fold change vs veh, ACBD3 / RFU, TMA16 / Fold change vs veh, TMA16 / RFU, RWDD3 / Fold change vs veh, RWDD3 / RFU, BCAT1 / Fold change vs veh, BCAT1 / RFU, EDEM3 / Fold change vs veh, EDEM3 / RFU, TMEM33 / Fold change vs veh, TMEM33 / RFU, WDR75 / Fold change vs veh, WDR75 / RFU, AHCTF1 / Fold change vs veh, AHCTF1 / RFU, TFRC / Fold change vs veh, TFRC / RFU, ZDHHC17 / Fold change vs veh, ZDHHC17 / RFU, NOM1 / Fold change vs veh, NOM1 / RFU, ARL8B / Fold change vs veh, ARL8B / RFU, ZBTB11 / Fold change vs veh, ZBTB11 / RFU, TAMM41 / Fold change vs veh, TAMM41 / RFU, KIAA1704 /// LOC100996395 / Fold change vs veh, KIAA1704 /// LOC100996395 / RFU, ING1 / Fold change vs veh, ING1 / RFU, TRMT61B / Fold change vs veh, TRMT61B / RFU, FUBP3 / Fold change vs veh, FUBP3 / RFU, TP53 / Fold change vs veh, TP53 / RFU, TNKS2 / Fold change vs veh, TNKS2 / RFU, ZFP14 / Fold change vs veh, ZFP14 / RFU, ACTR2 / Fold change vs veh, ACTR2 / RFU, PPP3R1 / Fold change vs veh, PPP3R1 / RFU, PIK3R1 / Fold change vs veh, PIK3R1 / RFU, HNRNPA1 / Fold change vs veh, HNRNPA1 / RFU, RNF170 / Fold change vs veh, RNF170 / RFU, ZNF28 / Fold change vs veh, ZNF28 / RFU, RNGTT / Fold change vs veh, RNGTT / RFU, OGT / Fold change vs veh, OGT / RFU, BRD1 / Fold change vs veh, BRD1 / RFU, MARS / Fold change vs veh, MARS / RFU, ZNF655 / Fold change vs veh, ZNF655 / RFU, FAHD1 / Fold change vs veh, FAHD1 / RFU, BDP1 / Fold change vs veh, BDP1 / RFU, LRRCC1 / Fold change vs veh, LRRCC1 / RFU, ARID1A / Fold change vs veh, ARID1A / RFU, ZNF146 / Fold change vs veh, ZNF146 / RFU, ZNF330 / Fold change vs veh, ZNF330 / RFU, GPN3 / Fold change vs veh, GPN3 / RFU, C9orf123 / Fold change vs veh, C9orf123 / RFU, N4BP2L2 / Fold change vs veh, N4BP2L2 / RFU, ARFIP1 / Fold change vs veh, ARFIP1 / RFU, FAM179B / Fold change vs veh, FAM179B / RFU, BCL10 / Fold change vs veh, BCL10 / RFU, UHRF1BP1L / Fold change vs veh, UHRF1BP1L / RFU, BET1 / Fold change vs veh, BET1 / RFU, CNOT2 / Fold change vs veh, CNOT2 / RFU, ZNF268 / Fold change vs veh, ZNF268 / Fold change vs veh, ZNF507 / RFU, DGCR2 / Fold change vs veh, DGCR2 / RFU, WDSUB1 / Fold change vs veh, WDSUB1 / Fold change vs veh, HSP90B1 /// MIR3652 / RFU, ADSS / Fold change vs veh, ADSS / RFU, GK / Fold change vs veh, GK / RFU, ZNF148 / Fold change vs veh, ZNF148 / RFU, TAF9 / Fold change vs veh, TAF9 / RFU, SLC1A5 / Fold change vs veh, SLC1A5 / RFU, SLMO2 / Fold change vs veh, SLMO2 / RFU, ABCC4 / Fold change vs veh, ABCC4 / RFU, LOC101060439 /// RAP1B / Fold change vs veh, LOC101060439 /// RAP1B / RFU, RFX7 / Fold change vs veh, RFX7 / RFU, GTPBP10 / Fold change vs veh, GTPBP10 / RFU, CNEP1R1 / Fold change vs veh, CNEP1R1 / RFU, BIVM-ERCC5 /// ERCC5 / Fold change vs veh, BIVM-ERCC5 /// ERCC5 / RFU, ILF3 / Fold change vs veh, ILF3 / RFU 11762660_at / Fold change /veh 11762660_at / RFU VCAN (11757783_s_at) / Fold change /veh VCAN (11757783_s_at) / RFU DDX43 (11728927_at) / Fold change /veh DDX43 (11728927_at) / RFU KRT8 (11758188_x_at) / Fold change /veh KRT8 (11758188_x_at) / RFU NKD1 (11759106_at) / Fold change /veh NKD1 (11759106_at) / RFU SRD5A1 (11742802_a_at) / Fold change /veh SRD5A1 (11742802_a_at) / RFU TPSAB1 /// TPSB2 (11721975_s_at) / Fold change /veh TPSAB1 /// TPSB2 (11721975_s_at) / RFU GSTM3 (11746129_a_at) / Fold change /veh GSTM3 (11746129_a_at) / RFU IL23R (11737362_x_at) / Fold change /veh IL23R (11737362_x_at) / RFU TMEM51 (11727254_a_at) / Fold change /veh TMEM51 (11727254_a_at) / RFU PIWIL2 (11732686_x_at) / Fold change /veh PIWIL2 (11732686_x_at) / RFU ORM1 (11744905_x_at) / Fold change /veh ORM1 (11744905_x_at) / RFU CCDC152 (11743942_at) / Fold change /veh CCDC152 (11743942_at) / RFU ECM1 (11717891_a_at) / Fold change /veh ECM1 (11717891_a_at) / RFU IL23R (11748794_a_at) / Fold change /veh IL23R (11748794_a_at) / RFU TNFAIP8L3 (11732012_x_at) / Fold change /veh TNFAIP8L3 (11732012_x_at) / RFU MBOAT4 (11741988_at) / Fold change /veh MBOAT4 (11741988_at) / RFU 11764193_at / Fold change /veh 11764193_at / RFU TMEM53 (11763286_at) / Fold change /veh TMEM53 (11763286_at) / RFU MAGEB2 (11727129_at) / Fold change /veh MAGEB2 (11727129_at) / RFU TMEM200A (11744735_a_at) / Fold change /veh TMEM200A (11744735_a_at) / RFU CCDC152 (11751479_a_at) / Fold change /veh CCDC152 (11751479_a_at) / RFU FAM211A (11726209_a_at) / Fold change /veh FAM211A (11726209_a_at) / RFU RGS16 (11746705_a_at) / Fold change /veh RGS16 (11746705_a_at) / RFU VCAN (11755009_s_at) / Fold change /veh VCAN (11755009_s_at) / RFU RHOB (11743442_s_at) / Fold change /veh RHOB (11743442_s_at) / RFU RGS16 (11720943_a_at) / Fold change /veh RGS16 (11720943_a_at) / RFU RGS16 (11720944_at) / Fold change /veh RGS16 (11720944_at) / RFU, VPS4B / Fold change vs veh, VPS4B / RFU, CREB1 / Fold change vs veh, CREB1 / RFU, DNAJC13 / Fold change vs veh, DNAJC13 / RFU, GNAQ / Fold change vs veh, GNAQ / RFU, CDK5R1 / Fold change vs veh, CDK5R1 / RFU, ZRANB3 / Fold change vs veh, ZRANB3 / RFU, CUL4A / Fold change vs veh, CUL4A / RFU, CCNY / Fold change vs veh, CCNY / RFU, UFL1 / Fold change vs veh, UFL1 / RFU, COG3 / Fold change vs veh, COG3 / RFU, DIAPH2 / Fold change vs veh, DIAPH2 / RFU, SKA2 / Fold change vs veh, SKA2 / RFU, AFF3 / Fold change vs veh, AFF3 / RFU, LMF1 / Fold change vs veh, LMF1 / RFU, IPO11 / Fold change vs veh, IPO11 / RFU, DFFB / Fold change vs veh, DFFB / RFU, FOXP1 / Fold change vs veh, FOXP1 / RFU, CARD8 / Fold change vs veh, CARD8 / RFU, STRN3 / Fold change vs veh, STRN3 / RFU, ADK / Fold change vs veh, ADK / RFU, RASSF2 / Fold change vs veh, RASSF2 / RFU, WIPF1 / Fold change vs veh, WIPF1 / RFU, LARP1B / Fold change vs veh, LARP1B / RFU, RASA1 / Fold change vs veh, RASA1 / RFU, RB1 / Fold change vs veh, RB1 / RFU, PPFIA1 / Fold change vs veh, PPFIA1 / RFU, MAT2A / Fold change vs veh, MAT2A / RFU, CCT5 / Fold change vs veh, CCT5 / RFU, WDR92 / Fold change vs veh, WDR92 / RFU, CUX1 / Fold change vs veh, CUX1 / RFU, TTC7A / Fold change vs veh, TTC7A / RFU, TMEM135 / Fold change vs veh, TMEM135 / RFU, DEPTOR / Fold change vs veh, DEPTOR / RFU, CPM / Fold change vs veh, CPM / RFU, DNAJB6 / Fold change vs veh, DNAJB6 / RFU, CACNA2D3 / Fold change vs veh, CACNA2D3 / RFU, DTX4 / Fold change vs veh, DTX4 / RFU, TFCP2 / Fold change vs veh, TFCP2 / RFU, GMCL1 /// GMCL1P1 / Fold change vs veh, GMCL1 /// GMCL1P1 / RFU, AEBP2 / Fold change vs veh, AEBP2 / RFU, SNHG1 /// SNORD22 /// SNORD25 /// SNORD26 /// SNORD27 /// SNORD28 /// SNORD29 /// SNORD31 / Fold change vs veh, SNHG1 /// SNORD22 /// SNORD25 /// SNORD26 /// SNORD27 /// SNORD28 /// SNORD29 /// SNORD31 / Fold change (Aza/veh), C12orf56 (ProbeSet 11735607_a_at) / Fold change (ACY-1035/veh), C12orf56 (ProbeSet 11735607_a_at) / Fold change (Aza/veh), FGFR1OP (ProbeSet 11751329_s_at) / Fold change (ACY-1035/veh), FGFR1OP (ProbeSet 11751329_s_at) / Fold change (Aza/veh), VPS36 (ProbeSet 11739960_a_at) / Fold change (ACY-1035/veh), VPS36 (ProbeSet 11739960_a_at) / RFU SYPL1 (11715823_x_at) / Fold change /veh SYPL1 (11715823_x_at) / RFU IGFBP7 (11715501_s_at) / Fold change /veh IGFBP7 (11715501_s_at) / RFU REEP3 (11722064_at) / Fold change /veh REEP3 (11722064_at) / RFU IGLL1 (11728026_x_at) / Fold change /veh IGLL1 (11728026_x_at): dose or concentration left out as unconfirmed
Conditions: ProbeSet 11763895_x_at; LIST B

`Nc1ccc(-c2cccs2)cc1NC(=O)c1ccc2c(c1)cc(C1CC1)n2CCN1CCOCC1` [ACY-1035] was tested, and the “RFU, SNORA58” value was 14.97 RFU.
